# Source: article PMC3375360 (Journal of Medicinal Chemistry, 2012)
# How the values were obtained:
# Assay type in all cases: cell-based
# [1] = tested on: T.b. rhodesiense, strain STIB 900 trypomastigotes; assay: In vitro growth inhibition of bloodstream form T. b. rhodesiense trypomastigotes; details: for activity designation against T. b. rhodesiense: TDR criteria
# [2] = tested on: T. cruzi, strain Tulahuen C4 amastigotes; assay: In vitro growth inhibition of T. cruzi amastigotes in infected L6 myoblasts
# [3] = tested on: L. donovani axenic, strain MHOM-ET-67/L82 amastigotes; assay: In vitro growth inhibition of axenically cultured L. donovani amastigotes; details: for activity designation against L. donovani: TDR criteria
# [4] = tested on: bloodstream form T. b. brucei parasites, engineered to overexpress type I nitroreductase; assay: microbe, parasite or virus in culture; details: Trypanosoma brucei, read-out: TbNTR −tet (IC50)
# [5] = tested on: L6 cells (rat skeletal myoblasts); assay: Cytotoxicity in L6 cells; details: read-out: L6 IC50 (cytotoxicity)
Molecule,activity designation against T. b. rhodesiense [1],also measured
O=C(NCCCn1ccnc1[N+](=O)[O-])c1ccc(C(F)(F)F)cc1 [Compound 1],inactive,–
"O=C(NCCCn1ccnc1[N+](=O)[O-])c1ccc(OC(F)(F)F)cc1 [Compound 2, N-[3-(2-Nitro-1H-imidazol-1-yl)propyl]-4-(trifluoromethoxy)benzamide]",inactive,–
"O=C(NCCCCn1cnc([N+](=O)[O-])n1)c1ccc(OC(F)(F)F)cc1 [Compound 6, N-[4-(3-Nitro-1H-1,2,4-triazol-1-yl)butyl]-4-(trifluoromethoxy)benzamide]",–,SI (T. cruzi) ([2]; ratio IC50 in L6 cells/IC50 in T. cruzi): >2381
"O=C(NCCCn1cnc([N+](=O)[O-])n1)c1cc(C(F)(F)F)cc(C(F)(F)F)c1 [Compound 8, N-[3-(3-Nitro-1H-1,2,4-triazol-1-yl)propyl]-3,5-bis(trifluoromethyl)benzamide]",inactivity,–
"O=C(NCCCn1cnc([N+](=O)[O-])n1)c1ccc(C(F)(F)F)nc1 [Compound 9, N-[3-(3-Nitro-1H-1,2,4-triazol-1-yl)propyl]-6-(trifluoromethyl)pyridine-3-carboxamide]",moderate activity,–
"O=C(NCCCn1cnc([N+](=O)[O-])n1)c1cnc2ccccc2n1 [Compound 12, N-[3-(3-Nitro-1H-1,2,4-triazol-1-yl)propyl]quinoxaline-2-carboxamide]",complete inactivity,–
"O=C(NCCCn1cnc([N+](=O)[O-])n1)c1ccc(-c2ccccc2)cc1 [Compound 13, N-[3-(3-Nitro-1H-1,2,4-triazol-1-yl)propyl]-4-phenylbenzamide]",moderately active (IC50 = 0.5–6.0 μM),–
"Cc1ccc2nc(NC(=O)Cn3cnc([N+](=O)[O-])n3)sc2c1 [Compound 17, N-(6-methyl-1,3-benzothiazol-2-yl)-2-(3-nitro-1H-1,2,4-triazol-1-yl)acetamide]",inactive,activity designation against L. donovani [3]: moderately active (IC50 = 1.0–6.0 μM)
"O=C(Cn1cnc([N+](=O)[O-])n1)Nc1nc2ccc(Cl)cc2s1 [Compound 18, N-(6-chloro-1,3-benzothiazol-2-yl)-2-(3-nitro-1H-1,2,4-triazol-1-yl)acetamide]",inactive,activity designation against L. donovani [3]: moderately active (IC50 = 1.0–6.0 μM)
"O=C(Cn1cnc([N+](=O)[O-])n1)Nc1nc2cc(Cl)ccc2o1 [Compound 19, N-(5-chloro-1,3-benzoxazol-2-yl)-2-(3-nitro-1H-1,2,4-triazol-1-yl)acetamide]",inactive,–
"O=[N+]([O-])c1nccn1CCCNS(=O)(=O)c1ccc(C(F)(F)F)cc1 [Compound 21, N-[3-(2-Nitro-1H-imidazol-1-yl)propyl]-4-(trifluoromethyl)benzene-1-sulfonamide]",inactive,–
"O=[N+]([O-])c1ncn(CCCNS(=O)(=O)c2cc(C(F)(F)F)ccc2C(F)(F)F)n1 [Compound 25, N-[3-(3-Nitro-1H-1,2,4-triazol-1-yl)propyl]-2,5-bis(trifluoromethyl)benzene-1-sulfonamide]",inactivity,–
"O=[N+]([O-])c1ncn(CCNS(=O)(=O)c2cc(C(F)(F)F)cc(C(F)(F)F)c2)n1 [Compound 26, N-[2-(3-nitro-1H-1,2,4-triazol-1-yl)ethyl]-3,5-bis(trifluoromethyl)benzene-1-sulfonamide]",inactivity,–
"O=[N+]([O-])c1ncn(CCCNS(=O)(=O)c2cc(C(F)(F)F)cc(C(F)(F)F)c2)n1 [Compound 27, N-[3-(3-nitro-1H-1,2,4-triazol-1-yl)propyl]-3,5-bis(trifluoromethyl)benzene-1-sulfonamide]",inactivity,–
"Cc1ccc(S(=O)(=O)NCCCn2cnc([N+](=O)[O-])n2)cc1 [Compound 28, 4-Methyl-N-[3-(3-nitro-1H-1,2,4-triazol-1-yl)propyl]benzene-1-sulfonamide]",–,SI (L.don. ax.) ([3]; ratio IC50 in L6 cells/IC50 in L. donovani): >8.1
"O=[N+]([O-])c1ncn(CCNS(=O)(=O)Cc2ccccc2)n1 [Compound 30, N-[2-(3-Nitro-1H-1,2,4-triazol-1-yl)ethyl]-1-phenylmethanesulfonamide]",–,activity designation against T. cruzi ([2]; TDR criteria): moderately active (IC50 = 4.0–60 μM)
"Nc1nc(N)nc(Nc2ccc([As]3SCC(CO)S3)cc2)n1 (stereo not drawn) [Melars., Melarsoprol, reference compound]",–,"IC50 ([1]; Trypanosoma brucei, RHODESIENSE|STIB900, read-out: T.b.rhod. IC50): 12 nM"
"CC1CS(=O)(=O)CCN1/N=C/c1ccc([N+](=O)[O-])o1 (stereo not drawn) [Nfx, 4-(5-nitrofurfurylidenamino)-3-methylthio-morpholine-1,1-dioxide]",–,IC50 [4]: 1710 ± 60 nM
Podophylotoxin [Podoph.],–,IC50 [5]: 22 nM
